Measurements: patent US11993599B2, “Therapeutic compounds” (Genentech, Inc., priority 2021, dated 2024)

Key:
BRM = BRM (Homo sapiens, UniProt P51531); assay: Immunofluorescence assay for BRM degradation in SW1573 cells; assay type: cell-based; parameters: treated overnight at 4° C. with either BRM primary antibody (Cell signaling Cat #11966) or BRG primary antibody; endogenous in cells; host or cells: SW1573; conditions: 20 hours incubation; for DC50: immunofluorescence mean nuclear signal, read-out: BRM IF Degradation IC50; for BRM IF Degradation Sinf (%): normalized to a known degrader control
Summary of the method: (§1)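 Imaging-based readout in SW1573: 20 h dosing, formaldehyde fixation, antibody staining for either remodeler, nuclear intensity per cell quantified. Values normalized to control degrader; floating-maximum fit.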

BRG1 = target: T1, BRG1 (Homo sapiens, UniProt P51532); assay: Immunofluorescence assay for BRG1 degradation in SW1573 cells; assay type: cell-based; conditions: 20 hours incubation; for DC50: immunofluorescence mean nuclear signal, read-out: BRG1 IF Degradation IC50; for Dmax: SW1573, 20 h, normalized to a known degrader control, read-out: BRG1 IF Degradation Sinf (%)
T1 construct: either BRM primary antibody (Cell signaling Cat #11966) or BRG primary antibody (Abcam, ab 110641); endogenous in cells; host or cells: SW1573
Summary of the method: as §1

T1 sequence (P51532 whole entry): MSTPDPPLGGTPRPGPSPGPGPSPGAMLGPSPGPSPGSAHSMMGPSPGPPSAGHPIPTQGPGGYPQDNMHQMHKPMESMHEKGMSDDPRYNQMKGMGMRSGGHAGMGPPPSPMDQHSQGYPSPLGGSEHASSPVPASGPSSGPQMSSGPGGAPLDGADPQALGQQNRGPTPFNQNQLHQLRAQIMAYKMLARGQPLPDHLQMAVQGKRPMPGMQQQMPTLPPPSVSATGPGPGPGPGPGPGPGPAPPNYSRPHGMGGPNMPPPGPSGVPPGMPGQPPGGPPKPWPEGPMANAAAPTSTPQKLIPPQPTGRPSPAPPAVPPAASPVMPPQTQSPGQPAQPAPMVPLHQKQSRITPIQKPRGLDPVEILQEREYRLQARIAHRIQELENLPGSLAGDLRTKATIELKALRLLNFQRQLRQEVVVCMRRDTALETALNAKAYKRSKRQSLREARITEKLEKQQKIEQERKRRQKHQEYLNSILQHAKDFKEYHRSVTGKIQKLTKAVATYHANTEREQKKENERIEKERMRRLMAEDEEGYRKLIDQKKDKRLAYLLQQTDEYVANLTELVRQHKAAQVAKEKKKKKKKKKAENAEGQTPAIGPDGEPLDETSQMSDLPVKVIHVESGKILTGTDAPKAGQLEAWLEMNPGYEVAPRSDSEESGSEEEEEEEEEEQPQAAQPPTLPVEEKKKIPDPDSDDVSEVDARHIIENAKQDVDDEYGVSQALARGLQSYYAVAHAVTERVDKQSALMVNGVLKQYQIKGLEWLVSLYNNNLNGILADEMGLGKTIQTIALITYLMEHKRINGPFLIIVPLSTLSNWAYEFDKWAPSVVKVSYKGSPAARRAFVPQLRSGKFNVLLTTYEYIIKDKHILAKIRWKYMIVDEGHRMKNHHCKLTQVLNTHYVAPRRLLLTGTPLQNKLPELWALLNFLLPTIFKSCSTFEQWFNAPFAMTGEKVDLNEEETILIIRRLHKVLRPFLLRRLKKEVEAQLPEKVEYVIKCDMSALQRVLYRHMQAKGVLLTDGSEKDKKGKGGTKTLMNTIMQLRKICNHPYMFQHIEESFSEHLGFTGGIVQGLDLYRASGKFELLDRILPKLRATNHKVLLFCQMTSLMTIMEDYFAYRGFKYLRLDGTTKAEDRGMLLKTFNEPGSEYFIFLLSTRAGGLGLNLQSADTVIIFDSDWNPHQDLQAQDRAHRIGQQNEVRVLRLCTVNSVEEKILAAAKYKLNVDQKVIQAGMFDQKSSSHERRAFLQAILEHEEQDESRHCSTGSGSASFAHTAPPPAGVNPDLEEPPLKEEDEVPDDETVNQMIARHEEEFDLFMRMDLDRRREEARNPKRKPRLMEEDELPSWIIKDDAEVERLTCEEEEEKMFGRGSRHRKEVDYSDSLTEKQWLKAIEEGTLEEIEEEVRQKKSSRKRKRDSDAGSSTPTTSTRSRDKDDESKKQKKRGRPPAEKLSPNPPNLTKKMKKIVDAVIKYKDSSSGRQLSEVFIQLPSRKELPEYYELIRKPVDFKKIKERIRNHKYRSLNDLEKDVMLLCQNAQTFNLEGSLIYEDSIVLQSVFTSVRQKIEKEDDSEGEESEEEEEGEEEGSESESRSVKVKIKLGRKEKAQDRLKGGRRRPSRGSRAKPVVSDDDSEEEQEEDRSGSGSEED
Chain of BRM (P51531 whole entry): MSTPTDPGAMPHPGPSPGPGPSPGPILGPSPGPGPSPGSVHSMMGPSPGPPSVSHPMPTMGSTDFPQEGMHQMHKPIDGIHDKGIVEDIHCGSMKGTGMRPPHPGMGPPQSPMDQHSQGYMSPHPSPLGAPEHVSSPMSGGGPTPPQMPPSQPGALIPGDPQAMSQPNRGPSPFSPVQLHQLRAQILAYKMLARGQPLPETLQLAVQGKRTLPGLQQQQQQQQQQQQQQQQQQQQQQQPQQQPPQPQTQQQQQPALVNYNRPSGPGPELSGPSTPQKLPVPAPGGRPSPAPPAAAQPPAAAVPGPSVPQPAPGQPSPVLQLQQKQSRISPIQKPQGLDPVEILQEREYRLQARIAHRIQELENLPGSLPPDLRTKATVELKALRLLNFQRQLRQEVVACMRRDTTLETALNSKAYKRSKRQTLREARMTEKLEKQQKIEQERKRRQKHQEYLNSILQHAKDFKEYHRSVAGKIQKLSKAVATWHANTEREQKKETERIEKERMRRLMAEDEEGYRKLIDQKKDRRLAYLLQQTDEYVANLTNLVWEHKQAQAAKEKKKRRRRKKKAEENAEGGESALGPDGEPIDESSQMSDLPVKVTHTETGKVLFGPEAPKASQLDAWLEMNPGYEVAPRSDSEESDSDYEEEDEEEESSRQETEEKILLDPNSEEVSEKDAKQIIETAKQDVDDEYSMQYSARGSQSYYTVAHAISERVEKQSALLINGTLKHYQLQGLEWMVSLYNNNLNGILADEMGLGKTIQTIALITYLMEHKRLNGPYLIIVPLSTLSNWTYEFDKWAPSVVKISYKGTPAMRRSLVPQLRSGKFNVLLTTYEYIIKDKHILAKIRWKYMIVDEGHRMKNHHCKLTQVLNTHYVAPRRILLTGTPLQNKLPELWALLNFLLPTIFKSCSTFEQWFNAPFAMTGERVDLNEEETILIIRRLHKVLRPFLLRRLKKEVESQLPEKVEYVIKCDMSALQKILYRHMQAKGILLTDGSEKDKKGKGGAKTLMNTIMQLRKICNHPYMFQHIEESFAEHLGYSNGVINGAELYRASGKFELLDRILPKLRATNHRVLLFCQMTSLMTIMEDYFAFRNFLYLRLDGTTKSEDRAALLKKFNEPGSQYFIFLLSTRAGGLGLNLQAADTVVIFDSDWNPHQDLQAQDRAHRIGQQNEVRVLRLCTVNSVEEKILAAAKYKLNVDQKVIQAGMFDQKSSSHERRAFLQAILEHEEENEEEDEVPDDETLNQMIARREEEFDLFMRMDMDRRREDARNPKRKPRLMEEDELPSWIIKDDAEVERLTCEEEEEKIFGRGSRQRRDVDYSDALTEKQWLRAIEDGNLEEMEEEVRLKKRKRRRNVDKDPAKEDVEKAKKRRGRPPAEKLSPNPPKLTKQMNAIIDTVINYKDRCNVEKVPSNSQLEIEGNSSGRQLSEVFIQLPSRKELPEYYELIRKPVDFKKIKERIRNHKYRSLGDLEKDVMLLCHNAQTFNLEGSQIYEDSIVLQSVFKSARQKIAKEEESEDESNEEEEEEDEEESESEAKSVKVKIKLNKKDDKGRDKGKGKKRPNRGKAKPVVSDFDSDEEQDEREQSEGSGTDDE

| Compound | DC50 (BRM) | BRM IF Degradation Sinf (%) (BRM) | DC50 (BRG1) | Dmax (BRG1) |
| --- | --- | --- | --- | --- |
| Nc1nnc(-c2ccccc2O)cc1N1CC2CCC(C1)N2c1ccnc(C#CCN2CCC3CC2CO3)c1 (stereo not drawn) [Compound 104, 2-[6-amino-5-[8-[2-[3-(6-oxa-2-azabicyclo[3.2.1]octan-2-yl)prop-1-ynyl]-4-pyridyl]-3,8-diazabicyclo[3.2.1]octan-3-yl]pyridazin-3-yl]phenol] | < 0.01 µM | E (E indicates −30%-−70%) | < 0.01 µM | 0 to 30% |
| Nc1nnc(-c2ccccc2O)cc1N1CC2CCC(C1)N2c1ccnc(C#CCN2CC(O)(C3CC3)C2)c1 [Compound 154, 1-[3-[4-[3-[3-amino-6-(2-hydroxyphenyl)pyridazin-4-yl]-3,8-diazabicyclo[3.2.1]octan-8-yl]-2-pyridyl]prop-2-ynyl]-3-cyclopropyl-azetidin-3-ol] | < 0.01 µM | F (F indicates −71%-−120%) | < 0.01 µM | 30 to 70% |
| CC1(CO)CCCN(CC#Cc2cc(N3C4CCC3CN(c3cc(-c5ccccc5O)nnc3N)C4)ccn2)CC1 (stereo not drawn) [Compound 197, 2-[6-amino-5-[8-[2-[3-[4-(hydroxymethyl)-4-methyl-azepan-1-yl]prop-1-ynyl]-4-pyridyl]-3,8-diazabicyclo[3.2.1]octan-3-yl]pyridazin-3-yl]phenol] | < 0.01 µM | F (F indicates −71%-−120%) | < 0.01 µM | 30 to 70% |
| Nc1nnc(-c2ccccc2O)cc1N1CC2CCC(C1)N2c1ccnc(C#CCN2CCC3(CC2)CC3)c1 [Compound 136, 2-(5-(8-(2-(3-(6-azaspiro[2.5]octan-6-yl)prop-1-yn-1-yl)pyridin-4-yl)-3,8-diazabicyclo[3.2.1]octan-3-yl)-6-aminopyridazin-3-yl)phenol] | < 0.01 µM | E (E indicates −30%-−70%) | < 0.01 µM | 30 to 70% |
| Nc1nnc(-c2ccccc2O)cc1N1CC2CCC(C1)N2c1ccnc(C#CCN2CC3CCCC3C2)c1 (stereo not drawn) [Compound 63, 2-[5-[8-[2-[3-(3,3a,4,5,6,6a-hexahydro-1H-cyclopenta[c]pyrrol-2-yl)prop-1-ynyl]-4-pyridyl]-3,8-diazabicyclo[3.2.1]octan-3-yl]-6-amino-pyridazin-3-yl]phenol] | < 0.01 µM | F (F indicates −71%-−120%) | < 0.01 µM | 30 to 70% |
| Nc1nnc(-c2ccccc2O)cc1N1CC2CCC(C1)N2c1ccnc(C#CCN2CCCC(O)CC2)c1 (stereo not drawn) [Compound 191, 1-[3-[4-[3-[3-amino-6-(2-hydroxyphenyl)pyridazin-4-yl]-3,8-diazabicyclo[3.2.1]octan-8-yl]-2-pyridyl]prop-2-ynyl]azepan-4-ol] | < 0.01 µM | F (F indicates −71%-−120%) | < 0.01 µM | 71 to 120% |
| Nc1nnc(-c2ccccc2O)cc1N1CCC2(CCN(c3ccnc(C#CCN4CCCCCC4)c3)CC2)CC1 [Compound 249, 2-(6-amino-5-(9-(2-(3-(azepan-1-yl)prop-1-yn-1-yl)pyridin-4-yl)-3,9-diazaspiro[5.5]undecan-3-yl)pyridazin-3-yl)phenol] | < 0.01 µM | E (E indicates −30%-−70%) | > 0.1 µM |  |
| Nc1nnc(-c2ccccc2O)cc1N1CC2CCC(C1)N2c1ccnc(C#CCN2CCC23CCC3)c1 [Compound 235, 2-[6-amino-5-[8-[2-[3-(1-azaspiro[3.3]heptan-1-yl)prop-1-ynyl]-4-pyridyl]-3,8-diazabicyclo[3.2.1]octan-3-yl]pyridazin-3-yl]phenol] | 0.01 to 0.1 µM | F (F indicates −71%-−120%) | < 0.01 µM | 30 to 70% |
| Nc1nnc(-c2ccccc2O)cc1N1CC2CCC(C1)N2c1ccnc(C#CCN2CCC[C@@H]3CC[C@@H]32)c1 [Compound 102, 2-[6-amino-5-[8-[2-[3-[(1S,6R)-2-azabicyclo[4.2.0]octan-2-yl]prop-1-ynyl]-4-pyridyl]-3,8-diazabicyclo[3.2.1]octan-3-yl]pyridazin-3-yl]phenol] | < 0.01 µM | E (E indicates −30%-−70%) | < 0.01 µM | 30 to 70% |
| Nc1nnc(-c2ccccc2O)cc1N1CC2CCC(C1)N2c1ccnc(C#CCN2CCC3CC32)c1 (stereo not drawn) [Compound 87, 2-[6-amino-5-[8-[2-[3-(2-azabicyclo[3.1.0]hexan-2-yl)prop-1-ynyl]-4-pyridyl]-3,8-diazabicyclo[3.2.1]octan-3-yl]pyridazin-3-yl]phenol] | < 0.01 µM | E (E indicates −30%-−70%) | < 0.01 µM | 30 to 70% |
| Nc1nnc(-c2ccccc2O)cc1N1CC2CCC(C1)N2c1ccnc(C#CCN2CCC(O)CC2)c1 [Compound 71, 1-[3-[4-[3-[3-amino-6-(2-hydroxyphenyl)pyridazin-4-yl]-3,8-diazabicyclo[3.2.1]octan-8-yl]-2-pyridyl]prop-2-ynyl]piperidin-4-ol] | 0.01 to 0.1 µM | E (E indicates −30%-−70%) | < 0.01 µM | 30 to 70% |
| CN1CCCN(CC#Cc2cc(N3C4CCC3CN(c3cc(-c5ccccc5O)nnc3N)C4)ccn2)CC1 [Compound 47, 2-[6-amino-5-[8-[2-[3-(4-methyl-1,4-diazepan-1-yl)prop-1-ynyl]-4-pyridyl]-3,8-diazabicyclo[3.2.1]octan-3-yl]pyridazin-3-yl]phenol] | > 0.1 µM | E (E indicates −30%-−70%) | > 0.1 µM | 0 to 30% |
| Nc1nnc(-c2ccccc2O)cc1N1CC2CCC(C1)N2c1ccnc(C#CCN2C[C@@H]3C[C@H]2C[C@H]3O)c1 [Compound 130, (1S,4S,5R)-2-[3-[4-[3-[3-amino-6-(2-hydroxyphenyl)pyridazin-4-yl]-3,8-diazabicyclo[3.2.1]octan-8-yl]-2-pyridyl]prop-2-ynyl]-2-azabicyclo[2.2.1]heptan-5-ol] | < 0.01 µM | E (E indicates −30%-−70%) | 0.01 to 0.1 µM | 30 to 70% |
| Nc1nnc(-c2ccccc2O)cc1N1CC2CCC(C1)N2c1ccnc(C#CCN2CC3(CCCCO3)C2)c1 [Compound 66, 2-[6-amino-5-[8-[2-[3-(5-oxa-2-azaspiro[3.5]nonan-2-yl)prop-1-ynyl]-4-pyridyl]-3,8-diazabicyclo[3.2.1]octan-3-yl]pyridazin-3-yl]phenol] | < 0.01 µM | F (F indicates −71%-−120%) | 0.01 to 0.1 µM | 30 to 70% |
| Nc1nnc(-c2ccccc2O)cc1N1CC2CCC(C1)N2c1ccnc(C#CCN2CCC3(CCOC3)C2)c1 (stereo not drawn) [Compound 140, 2-[6-amino-5-[8-[2-[3-(2-oxa-7-azaspiro[4.4]nonan-7-yl)prop-1-ynyl]-4-pyridyl]-3,8-diazabicyclo[3.2.1]octan-3-yl]pyridazin-3-yl]phenol] | < 0.01 µM | F (F indicates −71%-−120%) | < 0.01 µM | 30 to 70% |
| CC1(F)CCCCN(CC#Cc2cc(N3C4CCC3CN(c3cc(-c5ccccc5O)nnc3N)C4)ccn2)C1 (stereo not drawn) [Compound 243, 2-[6-amino-5-[8-[2-[3-(3-fluoro-3-methyl-azepan-1-yl)prop-1-ynyl]-4-pyridyl]-3,8-diazabicyclo[3.2.1]octan-3-yl]pyridazin-3-yl]phenol] | 0.01 to 0.1 µM | F (F indicates −71%-−120%) | < 0.01 µM | 30 to 70% |
